The target in assay [1] is T1, A3 adenosine receptor (Rattus norvegicus, UniProt P28647).
T1 sequence (P28647 1-320): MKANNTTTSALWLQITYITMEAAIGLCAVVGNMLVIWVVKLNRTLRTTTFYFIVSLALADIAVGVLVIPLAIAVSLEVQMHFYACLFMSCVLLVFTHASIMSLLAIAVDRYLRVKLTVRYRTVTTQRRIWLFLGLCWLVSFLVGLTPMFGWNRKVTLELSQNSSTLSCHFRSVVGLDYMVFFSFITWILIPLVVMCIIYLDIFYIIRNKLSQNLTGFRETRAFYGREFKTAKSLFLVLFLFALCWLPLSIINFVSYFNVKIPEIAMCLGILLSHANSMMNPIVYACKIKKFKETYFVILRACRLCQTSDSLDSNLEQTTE
As to the kind of experiment: Direct radioligand binding / Scatchard analysis, stably transfected CHO cell membranes. Particulars: for specific, high affinity binding to the A3 receptor: radiolabeled ligands. The text has this:
FIG. 3 illustrates a Scatchard plot of radioligand binding assays for the A3 adenosine receptor performed with the adenosine radioligand [^125 I]APEA and membrane preparations from stably transfected CHO cells.
The entire coding region of the A3 cDNA insert from R226 was excised from pGem226 and subcloned into either the HindIII/XbaI sites of an RC-RSV expression vector (Invitrogene, San Diego, Calif.) or the HindIII/SmaI sites of pBC12BI (Cullen, 1987, Meth. Enzym. 152: 684-704). The resulting plasmids were called Rc-RSV226 and pBC226 respectively. For transient expression in COS-7 cells, pBC226 plasmid DNA was prepared in large-scale through one cycle of CsCl gradient ultracentrifugation and 45 μg pBC226 DNA were transfected into each 150mm dish of COS-7 cells according to the method of Chen and Okayama (1987, Molec. Cell Biol. 7: 2745-2752). For stable expression in CHO cells, 1 μg Rc-RSV226 plasmid DNA isolated from a small-scale preparation was purified using the Prep-A-Gene kit (Bio-Rad) and transfected into CHO cells by the CaPO4 method (Graham and van der Eb, 1973, Virol. 52: 456-463). After transfection, cells were cultured in DMEM (COS-7 cells) or F-12 (CHO cells) media supplemented with 10% fetal calf serum in a 3% CO2 atmosphere at 37° C. For stable transfection, selection was performed with neomycin (G418; SOURCE) at a concentration of 700 μg/ml; selection was started 72 hr after transfection and continued for 3 weeks. Cell colonies were screened for expression of the A3 adenosine receptor from the R226 expression vectors described herein by Northern blot hybridization of total cellular RNA with random-primed PCR226 probe (Maniatis et al., ibid.).
(§1) Cell membranes were prepared as follows. COS-7 cells (transient expressors) were harvested 48 hrs after transfection, whereas CHO cells (stable expressors) were grown to confluence in 150 mm plates. Cells were washed twice with ice-cold HOB buffer [15 mM Tris-HCl (pH 7.4), 5 mM MgCl2, 1 mM EDTA] and scraped off plates with a rubber policeman. Cells were then collected by centrifugation at 1,200 rpm (xx g), resuspended in HOB buffer, transferred to a Dounce homogenizer on ice, and homogenized for 20 sec with a CorTarge homogenizer (Eberbach Inc., Ann Arbor, Mich.) at the #3 speed setting. The homogenate was then centrifuged at 2,000 rpm (xx g) for 10 min at 4° C. The supernatant was saved and the pellet resuspended in HOB buffer and subjected to a second round of homogenation. The second homogenate was centrifuged at 2000 rpm (xx g) for 10 min and the pellet was discarded. Supernatants were pooled and centrifuged at 34,000 rpm (xx g) for 45 min. These crude membrane pellets were resuspended in TEM buffer [50 mM Tris-HCl (pH 7.4), 5 mM MgCl2, 1 mM EDTA]. Adenosine deaminase (Sigma, St Louis, Mo.) was added to the membrane suspensions to a concentration of 2 Units/ml and incubated at 37° C. for 30 min. The membrane suspension was subsequently recentrifuged at 34,000 rpm (xx g) for 45 min. The resulting pellet was resuspended in TEM buffer at a protein concentration of about 1 mg/ml and stored in small aliquots at -70° C. The protein concentration was measured according to the method of Lowry et al. (1954, J. Biol. Chem. 207: 1-XXX) using bovine serum albumin as a standard.
Radioligand binding assays were carried out in duplicate in 500 μl of a solution containing (at final concentrations) 50 mM Tris-HCl (pH 7.4), 5 mM MgCl2, 1 mM EDTA, 0.025 % ascorbic acid, radioligands, and appropriate drugs. […] ([aH]XAC), [^3 H]-labeled 2-[4-(2-[(4-aminophenyl)methylcarbobylamino]ethylaminocarbonyl)ethyl)phenyl]ethylamino-5'-N-ethylcarboxamidoadenosine ([^3 H]PAPA-APEC), and [^3 H]-labeled [2-(4-(2-carboxyethyl)phenylethyamino)5'-N-ethylcarboxamidoadenosine ([^3 H]CGS21680). Receptor binding was initiated by the addition of membrane preparations in an amount equivalent to 20-100 μg protein, and carried out at 37° C. for 1 hr.

For assay [2], the target named is T1, A3 adenosine receptor. As to the kind of experiment: cell-based. It is filed as cell-based. On the procedure: The concentrations of adenosine agonists used are 100 nM and the concentration of forskolin is 1 μM. Values are obtained from triplicate plates and shown as mean ±S.E.
The cell were not or pretreated with 100 ng/ml pertussis toxin for 18 hours. The concentration of forskolin and adenosine agonists used are as in FIG. 5.
It is known that the A 1 adenosine receptor inhibits adenylate cyclase activity and the A2 adenosine receptor stimulates adenylate cyclase respectively (Stiles, ibid.; Williams, ibid.).
(§2) Cells were grown to about 80% confluence in 150 mm dishes, washed twice with Ca^++ and Mg^++ -free PBS buffer and detached from plates with PBS buffer containing 0.02% EDTA. Cells were collected by centrifugation at 800 rpm (xx g) for 10 min at 4° C. and resuspended in an appropriate volume of KRH buffer [140 mM NaCl, 5 mM KCl , 2 mM CaCl2, 1.2 mM MgSO4, 1.2 mM KH2 PO4, 6 mM glucose, 25 mM Hepes-NaOH (pH 7.4)]. The cells were washed once with KRH buffer and resuspended in KRH buffer at a concentration of 10^7 cells/ml. Each of 100 μl aliquots of this cell suspension were added to a glass tube containing 100 μl KRH+200 μM Ro 20-1724 and incubated at 37° C. for 10 min. Prewarmed 200 μl KRH containing 200 μm Ro 20-1724 and test drugs were then added to the cells and mixed. After incubation at 37° C. for 20 min, 400 μl 10.5 mM NaAc (pH 6.2) were added and the glass tubes transferred to a boiling water bath. The incubated cell suspension were boiled for 20 min, and the tubes were then cooled to room temperature and centrifuged at 3000 rpm (xx g) for 15 min.
For experiments using pertussis toxin pretreatment, aseptic pertussis toxin (Sigma Chemical Co., St. Louis, Mo.) was dissolved in sterile water and added to the medium to a final concentration of 100 ng/ml. Toxin treatment was maintained for approximately 18 hours. The dishes were rinsed once with media immediately prior to the addition of adenosine receptor ligands and processed as described above.

Assay [3] addresses T1, A3 adenosine receptor. Kind of assay: biochemical. In kind it is binding. As to conditions: for ability to compete with [125I]APNEA for A3 receptor binding: 100 μM. The method, then: FIGS. 4A and 4B illustrates competitive binding assays using stably transfected CHO cell membrane preparations.
as §1
Radioligand binding assays were carried out in duplicate in 500 μl of a solution containing (at final concentrations) 50 mM Tris-HCl (pH 7.4), 5 mM MgCl2, 1 mM EDTA, 0.025 % ascorbic acid, radioligands, and appropriate drugs. […] ([aH]XAC), [^3 H]-labeled 2-[4-(2-[(4-aminophenyl)methylcarbobylamino]ethylaminocarbonyl)ethyl)phenyl]ethylamino-5'-N-ethylcarboxamidoadenosine ([^3 H]PAPA-APEC), and [^3 H]-labeled [2-(4-(2-carboxyethyl)phenylethyamino)5'-N-ethylcarboxamidoadenosine ([^3 H]CGS21680). Receptor binding was initiated by the addition of membrane preparations in an amount equivalent to 20-100 μg protein, and carried out at 37° C. for 1 hr. Nonspecific binding was determined in the presence of 10 μM R-N^6 -phenyl-2-propyladenosine (R-PIA). After incubation, samples were filtered through glass fiber filters (Schleicher and Schuell #32) and washed three times with 4 ml ice-cold 10 mM TrisoHCl (pH 7.4). Radioactivity retained on the filters were counted using a Beckman LS6800 scintillation counter (Beckman Instruments, Palo Alto, Calif.). […] A LIGAND computer program was used for data analysis and curve fitting (Munson & Rodband, 1980, Anal. Biochem. 107: 220-225).
The A3 receptor was then characterized using competition assays between [^125 I]APNEA A3 receptor binding versus a series of other adenosine receptor ligands. Labeled APNEA was present in these assays at 0.5 nM; unlabled competitors were present at varying concentrations as shown in FIG. 4A.

For assay [4], the target named is T1, A3 adenosine receptor. It is filed as cell-based. As to conditions: 1 μM forskolin; 100 μM adenosine.
The subject of another assay is cellular cAMP levels. Kind of assay: Cellular cAMP levels after forskolin in wild type and stably transfected CHO cells. In kind it is cell-based, Chinese hamster. As to conditions: Cricetulus griseus, 20 min, read-out: increase in cellular cAMP levels, 1 μM forskolin. On the procedure: as §2
For orientation: Changes in cAMP serve as a functional read-out for many G protein-coupled receptors.

Setting [5] is: stably transfected CHO membranes.

Like-named read-outs stand apart in the source and are kept apart here.

What is called Kd is a measure of binding affinity in units of concentration. Regarding `Nc1ccc(CCNc2ncnc3c2ncn3[C@@H]2O[C@H](CO)[C@@H](O)[C@H]2O)cc1I` [APNEA, N^6-2-(4-amino-3-iodo-phenyl) ethyladenosine], on A3 adenosine receptor [1] ([125I]APNEA, stably transfected CHO membranes), the “saturable binding (Scatchard plot)” value was found to be 225 fmol/mg. For the same compound, the Kd on A3 adenosine receptor [1] ([125I]APNEA, stably transfected CHO membranes, read-out: Kd (Scatchard plot analysis)) stood at 0.0155 ± 0.0024 µM. Also, the “affinity at A3 compared with other, well-characterized A1 receptors” value at A3 adenosine receptor [1] (comparison with literature A1 receptors (Stiles et al., 1985)) is reported as “about ten-fold lower”. In addition, the “specific, high affinity binding to the A3 receptor” value (“specific, high affinity binding” for short) is “saturable and high affinity binding” on A3 adenosine receptor [1] (setting [5]); “only adenosine receptor ligand to show specific, high affinity binding to the A3 receptor” at A3 adenosine receptor [1] (stably transfected CHO membranes, listed as [^125 I]APNEA).

For orientation: EC50 means the concentration that produces a half-maximal response. Low values mean higher potency in that assay, high ones lower potency in that assay. As usually defined, the IC50 is the concentration at which inhibition is half-maximal. A low value points to greater potency. Regarding `Nc1ncnc2c1ncn2[C@@H]1O[C@H](CO)[C@@H](O)[C@H]1O` [Adenosine, adenosine], the EC50 at A3 adenosine receptor [2] (Table II) amounted to 6.5 ± 2.1 µM. Also, on A3 adenosine receptor [2] (at the concentrations tested), the “maximal effect on cAMP production” value is listed as “does not reach its maximal effect at the concentrations tested”. Besides, at A3 adenosine receptor [3], the “affinity relative to nucleotides” value is “much higher affinity than ATP, ADP, AMP, cAMP or UTP”. The compound further yielded an IC50 against A3 adenosine receptor [3] (Table I and text, 0.5 nM [125I]APNEA) of 30 ± 4 µM. Moreover, the “pharmacological profile of inhibition of [125I]APNEA binding” value on A3 adenosine receptor [3] (rank order) is on record as “R-PIA=NECA>S-PIA>adenosine>ATP=ADP”. Further, the “inhibition of forskolin-stimulated cAMP accumulation” value against A3 adenosine receptor [4] was 20-50%.

Turning to `CCNC(=O)[C@H]1O[C@@H](n2cnc3c(N)nc(NCCc4ccc(CCC(=O)O)cc4)nc32)[C@H](O)[C@@H]1O` [CGS21680], a half-maximal effect at A3 adenosine receptor [2] (EC50) was put at 0.144 ± 0.034 µM. In addition, the “inhibition of forskolin-stimulated cAMP accumulation” value at A3 adenosine receptor [2] (1 μM forskolin, 100 nM agonist) is reported as 20-50%. The “maximum inhibition of cAMP production” value on A3 adenosine receptor [2] (of control values) is 40-50%. The “specific, high affinity binding” value on A3 adenosine receptor [1] (setting [5]) was “The only adenosine receptor ligand to show specific, high affinity binding to the A3 receptor was the A1 selective agonist [^125 I]APNEA”.

With `CCCn1c(=O)c2[nH]c(C3CCCC3)nc2n(CCC)c1=O` [DPCPX, 1,3-dipropyl-8-cyclopentylxanthine], the “reversal of inhibitory effect of NECA on forskolin-stimulated cAMP production” value at A3 adenosine receptor [2] (10 nM DPCPX) is “could not be reversed”. Moreover, on A3 adenosine receptor [3], the “ability to compete with [125I]APNEA for A3 receptor binding” value is recorded as “none of the methylxanthines tested were capable of competing with labeled APNEA”. In addition, the “specific, high affinity binding” value on A3 adenosine receptor [1] (setting [5]) is “The only adenosine receptor ligand to show specific, high affinity binding to the A3 receptor was the A1 selective agonist [^125 I]APNEA”; on A3 adenosine receptor [1] (stably transfected CHO membranes, listed as [^3 H]DPCPX) it was “does not bind to the A3 adenosine receptor”.

As to `CCNC(=O)[C@H]1O[C@@H](n2cnc3c(N)nc(NCCc4ccc(CCC(=O)NCCNC(=O)Cc5ccc(N)cc5)cc4)nc32)[C@H](O)[C@@H]1O` [PAPA-APEC], at A3 adenosine receptor [1] (setting [5]), the “specific, high affinity binding” value is “The only adenosine receptor ligand to show specific, high affinity binding to the A3 receptor was the A1 selective agonist [^125 I]APNEA”.

As to `CCCn1c(=O)c2[nH]c(-c3ccc(OCC(=O)NCCN)cc3)nc2n(CCC)c1=O` [XAC], on A3 adenosine receptor [3], the “ability to compete with [125I]APNEA for A3 receptor binding” value is “none of the methylxanthines tested were capable of competing with labeled APNEA”. At A3 adenosine receptor [1] (setting [5]), the “specific, high affinity binding” value was “The only adenosine receptor ligand to show specific, high affinity binding to the A3 receptor was the A1 selective agonist [^125 I]APNEA”.

Consider `C=C[C@@]1(C)CC(=O)[C@]2(O)[C@@]3(C)[C@@H](O)CCC(C)(C)[C@@H]3[C@H](O)[C@H](OC(C)=O)[C@@]2(C)O1` [forskolin], for which the fold induction at 1 µM in the assay with cellular cAMP levels came out at 15.
